Measured values reported in US20260325658A1 (priority 2022, published 2026).
“Also recorded” adds a separate entry of the source.

Legend:
[1] = cited from earlier work
Mecp2-null mice = conditions: mouse, in vivo; cited from earlier work
dopamine receptors = conditions: cited from earlier work
[2] = in vivo; cited from earlier work
Sigma 2 = Sigma 2 (Homo sapiens, UniProt Q5BJF2); conditions: cited from earlier work
patients = conditions: human, in vivo; cited from earlier work
D2L human dopamine GPCR = D2L human dopamine GPCR (Homo sapiens, UniProt P14416); assay type: cell-based
Opiate μ = Opiate μ (Homo sapiens, UniProt P35372); assay type: binding
[3] = target: human delta (DOP) receptor (Homo sapiens, UniProt P41143); assay type: cell-based
adult patients = conditions: human, in vivo; cited from earlier work
[4] = system: opioid addiction syndrome; conditions: in vivo; cited from earlier work

Sequence of Opiate μ (P35372 whole entry): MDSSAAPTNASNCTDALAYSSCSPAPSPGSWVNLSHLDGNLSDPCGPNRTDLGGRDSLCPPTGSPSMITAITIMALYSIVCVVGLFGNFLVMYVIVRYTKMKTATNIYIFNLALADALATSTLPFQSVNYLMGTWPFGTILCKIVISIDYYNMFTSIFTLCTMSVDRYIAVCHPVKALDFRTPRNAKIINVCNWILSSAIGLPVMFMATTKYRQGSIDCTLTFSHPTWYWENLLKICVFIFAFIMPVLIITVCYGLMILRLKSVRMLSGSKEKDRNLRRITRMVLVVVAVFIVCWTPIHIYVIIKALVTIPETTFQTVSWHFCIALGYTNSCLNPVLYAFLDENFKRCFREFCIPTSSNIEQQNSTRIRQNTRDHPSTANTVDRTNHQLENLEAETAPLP
Sequence of D2L human dopamine GPCR (P14416 whole entry): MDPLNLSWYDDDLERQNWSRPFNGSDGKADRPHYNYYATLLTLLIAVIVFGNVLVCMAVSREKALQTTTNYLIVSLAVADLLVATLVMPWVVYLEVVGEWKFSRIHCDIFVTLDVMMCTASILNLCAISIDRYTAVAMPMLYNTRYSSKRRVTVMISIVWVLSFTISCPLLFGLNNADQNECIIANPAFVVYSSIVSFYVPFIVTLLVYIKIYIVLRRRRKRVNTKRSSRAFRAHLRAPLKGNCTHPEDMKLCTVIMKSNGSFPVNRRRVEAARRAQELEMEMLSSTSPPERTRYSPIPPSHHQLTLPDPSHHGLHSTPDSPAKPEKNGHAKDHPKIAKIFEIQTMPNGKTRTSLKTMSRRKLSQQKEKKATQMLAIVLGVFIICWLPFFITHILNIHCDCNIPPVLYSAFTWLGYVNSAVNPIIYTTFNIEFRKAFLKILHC
Sequence of human delta (DOP) receptor (P41143 whole entry): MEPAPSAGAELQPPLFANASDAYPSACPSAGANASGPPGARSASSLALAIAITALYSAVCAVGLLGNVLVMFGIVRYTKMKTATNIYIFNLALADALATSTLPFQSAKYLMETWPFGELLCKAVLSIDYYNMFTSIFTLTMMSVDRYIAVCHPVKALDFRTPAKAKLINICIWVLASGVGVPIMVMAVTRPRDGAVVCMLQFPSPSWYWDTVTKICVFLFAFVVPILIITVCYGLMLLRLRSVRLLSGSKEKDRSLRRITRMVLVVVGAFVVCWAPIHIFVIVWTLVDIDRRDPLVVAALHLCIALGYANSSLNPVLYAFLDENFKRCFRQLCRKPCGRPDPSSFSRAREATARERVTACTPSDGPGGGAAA
Sequence of Sigma 2 (Q5BJF2 whole entry): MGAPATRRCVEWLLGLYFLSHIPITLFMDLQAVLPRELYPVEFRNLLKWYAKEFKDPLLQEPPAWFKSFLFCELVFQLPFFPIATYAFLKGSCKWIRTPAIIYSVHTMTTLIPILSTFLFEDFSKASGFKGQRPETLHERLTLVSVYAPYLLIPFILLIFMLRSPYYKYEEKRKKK

NCCc1c[nH]c2ccccc12 [Tryptamine]
Water Solubility of Free drug [1]: 1340 µg/mL

CNC1(c2ccccc2Cl)CCCCC1=O (stereo not drawn) [Ketamine, 2-(2-chlorophenyl)-2-(methylamino)-cyclohexanone]
efficacy by start of treatment (Mecp2-null mice): Treatment from day 30 was not effective; also recorded: treatment from day 15 showed some efficacy
improved survival (Mecp2-null mice): 50%
survival after treatment (Mecp2-null mice): 50%
affinity for / effect on dopamine receptors (dopamine receptors): not shown any affinity for dopamine 2 receptors; also recorded: do not appear to have a direct effect on dopamine receptors
half-life [2]: approximately 45 minutes
concentration at which sigma2 receptors are bound (Sigma 2): mM concentrations
patients who develop an emergence phenomenon (patients): More than half the patients

NCCc1c[nH]c2ccc(O)cc12 [5HT, 5-hydroxy tryptamine]
Water Solubility of Free drug [1]: 2500 µg/mL

NC1(c2ccccc2Cl)CCCCC1=O (racemic) [NorKetamine, (R,S)-Norketamine]
affinity for / effect on dopamine receptors (dopamine receptors): do not appear to have a direct effect on dopamine receptors
Water Solubility of Free drug [1]: 178 µg/mL
DRD2L Agonist (D2L human dopamine GPCR): Not active
ability to bind dopamine 2 receptors (D2L human dopamine GPCR): does not appear to bind Dopamine 2 receptors
Opiate μ (Opiate μ): Not active
binding to Opioid u receptors (Opiate μ): does not bind Opioid u receptors
Opiate delta1R (antagonist) [3]: Not active

c1ccc(C2(N3CCCCC3)CCCCC2)cc1 [PCP, 1-(1-phencyclohexyl) piperidine]
adult patients presenting with the classic toxidrome of PCP intoxication (adult patients): Over 50%

CC[C@H]1C[C@H]2C[C@H]3c4[nH]c5ccc(OC)cc5c4CCN(C2)[C@@H]13 [Ibogaine]
drug craving and depressive symptoms [4]: decreases drug craving and improves depressive symptoms
